System: neuroleptic-induced catatonia
Experiment: Inhibition of neuroleptic-induced catatonia (prochlorperazine)
Assay type: in vivo, rat (male, OFA strain)
Method: 2. Inhibition of neuroleptic-induced catatonia
The blocking of dopaminergic receptors by neuroleptics in the extra-pyramidal system induces catatonia in the rat. Catatonia is differentiated from sedative properties by means of the test used hereabove for reserpine-induced catatonia. The same system of scoring was also employed in the present case.
An oral dose of the compound to be studied in aqueous solution was administered to batches of 10 male rats of the OFA strain weighing about 150 to 200 g. […] Three hours after the injection of this latter compound, catatonia was measured. An identical trial was also carried out with control animals which received prochlorperazine but none of the compounds under study.
The scoring system, used was that given hereabove in Table I.

With `CCCC(N)(CCC)CCC` [Compound 1] the “Inhibition of the neuroleptic-induced catatonia” value (1 mg/kg) was 70%, the “Inhibition of the neuroleptic-induced catatonia” value (5 mg/kg oral, 30 min before prochlorperazine 12.5 mg/kg i.p.) was 4 (100% inhibition of catatonia in comparison with the controls (namely a score of 0 per studied batch)) and the “activity compared with amantadine, neuroleptic-induced catatonia” value (versus amantadine) was “twenty times more active than amantadine”.
